# According to PMC6286348, “Inhibitor binding mode and allosteric regulation of Na^+-glucose symporters” (Nature Communications, 2018):
# Positions count from the first letter of the chain named.
# Assays:
# hSGLT1 Q457C = tested on: hSGLT1 Q457C; parameters: method as in PMID 22159082; details: oocytes, 22 °C; cited from earlier work
# hSGLT1 wild-type = target: T1, hSGLT1 wild-type (Homo sapiens, UniProt P13866); test: SGLT current measurement (two electrode voltage clamp) in oocytes, hSGLT1 wild-type; type: cell-based; details: apparent affinity from αMDG current vs external Na^+, 10 mM αMDG, 22 °C
# T1 construct: expressed in transfected cells; host or cells: Xenopus laevis oocytes injected with cRNA
# T1 sequence (P13866 1-664): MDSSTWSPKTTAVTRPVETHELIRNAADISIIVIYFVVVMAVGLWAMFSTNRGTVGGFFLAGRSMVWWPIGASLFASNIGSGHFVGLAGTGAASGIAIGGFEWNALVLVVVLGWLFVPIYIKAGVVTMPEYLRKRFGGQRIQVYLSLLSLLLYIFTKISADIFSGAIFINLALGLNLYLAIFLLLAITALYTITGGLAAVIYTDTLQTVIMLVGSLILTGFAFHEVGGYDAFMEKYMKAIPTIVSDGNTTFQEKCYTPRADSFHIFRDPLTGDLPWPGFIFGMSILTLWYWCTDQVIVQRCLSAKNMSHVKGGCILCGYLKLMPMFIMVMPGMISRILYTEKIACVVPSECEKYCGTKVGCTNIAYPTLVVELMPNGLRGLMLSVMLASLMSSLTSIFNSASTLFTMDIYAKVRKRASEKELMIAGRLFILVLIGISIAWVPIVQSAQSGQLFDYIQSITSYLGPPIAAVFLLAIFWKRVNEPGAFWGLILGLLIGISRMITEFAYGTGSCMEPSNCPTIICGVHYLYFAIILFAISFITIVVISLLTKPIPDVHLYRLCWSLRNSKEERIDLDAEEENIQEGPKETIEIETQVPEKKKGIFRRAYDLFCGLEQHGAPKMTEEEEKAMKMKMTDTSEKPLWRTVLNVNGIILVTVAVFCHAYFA
# Protocol: Xenopus laevis (Nasco) oocytes (V–VI) were prepared as previously described[20] and injected with 50 nl of cRNA (1 μg/μl). […] Briefly, oocytes were incubated for 30 min in the presence of 50 μM αMDG (5 μM [^14C]αMDG) in a buffer containing (in mM) 100 NaCl, 2 KCl, 1 MgCl2, 1 CaCl2, and 10 N-(2-hydroxyethyl)piperazine-N′-(2-ethanesulfonic acid) (HEPES)/Tris (pH 7.5). After incubation, oocytes were rinsed thoroughly with ice-cold buffer containing (mM) 100 choline Cl^–, 2 KCl, 1 MgCl2, 1 CaCl2, and 10 HEPES/Tris (pH 7.5), individually lysed with 5% sodium dodecyl sulfate, and assayed for radioactivity.
# Injected oocytes were incubated at 18 °C, and after 3–4 days, two electrode voltage clamp experiments were performed as previously described. Briefly, SGLT inward glucose currents were measured as a function of the external Na^+ (0–100 mM NaCl), sugar (0–100 mM αMDG), and inhibitors (0.001–100 μM). Steady-state and hSGLT1 capacitive currents were recorded using voltage steps from a holding voltage, Vh of −60 mV, to voltages in the range of −180 to +50 mV in 20 mV increments. The apparent affinity of αMDG, K0.5, was estimated from plots of the inward current as a function of the external αMDG concentration. […] The Na^+-to-αMDG stoichiometry was determined from the reversal potential measurements using the Gibbs free energy as previously described. […]
# hSGLT1 S393A/C = tested on: hSGLT1 S393A/C; parameters: method as in PMID 22159082; details: oocytes, 22 °C; cited from earlier work
# hSGLT1 Y290F = target: T2, hSGLT1 Y290F (Homo sapiens, UniProt P13866, Y290F); parameters: method as in PMID 23116249; details: oocytes, 22 °C; cited from earlier work
# T2 construct: expressed in transfected cells; host or cells: Xenopus laevis oocytes injected with cRNA
# T2 sequence (P13866 1-664 Y290F): T1 sequence (P13866 1-664) with Y290F
smiles,measurement,setting,value
[Na+] [Na^+],K0.5 Na^+,hSGLT1 Q457C,34 ± 2[20] mM
same,K0.5 Na^+,hSGLT1 wild-type,36 ± 1 mM
same,K0.5 Na^+,hSGLT1 S393A/C,32 ± 3[20] mM
same,K0.5 Na^+,hSGLT1 Y290F,20 ± 1[21] mM
